Test results as given in US9255101B2 (BIOPROJECT, priority 2012, dated 2016).
Structures can show the parent of a compound that is named as a salt.

What was measured:
human H4 receptor [1] = target: T1, human H4 receptor (Homo sapiens, UniProt Q9H3N8); test: biochemical
human H4 receptor [2] = target: T1, human H4 receptor; test: biochemical; remark: listed apart in the source
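Throughout, for IC50: membranes from SH-SY5Y cells with stable human H4 receptor expression, incubated with GDP 10 µM, radioactivity retained on filters counted by liquid scintillation.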
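Throughout, for Ki: radioligand displacement of a [3H]-labelled ligand from membranes of CHO cells stably expressing human H4 receptor, bound radioactivity counted on filters by liquid scintillation.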

T1 sequence (Q9H3N8 whole entry): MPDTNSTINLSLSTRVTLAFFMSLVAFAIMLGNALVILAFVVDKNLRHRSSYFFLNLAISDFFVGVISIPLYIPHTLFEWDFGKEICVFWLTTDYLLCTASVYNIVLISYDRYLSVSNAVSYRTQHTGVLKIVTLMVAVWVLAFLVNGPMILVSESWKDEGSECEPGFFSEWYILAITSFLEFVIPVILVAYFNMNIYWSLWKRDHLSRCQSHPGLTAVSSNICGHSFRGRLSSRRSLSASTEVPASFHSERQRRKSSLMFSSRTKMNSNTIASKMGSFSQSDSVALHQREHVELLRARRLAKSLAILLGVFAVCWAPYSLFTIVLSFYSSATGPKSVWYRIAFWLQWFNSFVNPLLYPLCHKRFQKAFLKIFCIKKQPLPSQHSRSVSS

Cc1c(-c2ccc(N3CCN(C(C)(C)C)C3=O)cc2)nc2n1CCc1ccccc1C2OC1CCN(C)CC1 (stereo not drawn) [Example 140, 1-tert-butyl-3-{4-[1-methyl-4-(1-methylpiperidin-4-yloxy)-9,10-dihydro-4H-3,10a-diaza-benzo[f]azulen-2-yl]-phenyl}-imidazolidin-2-one]
Ki (human H4 receptor [1]): < 0.03 µM | IC50 (human H4 receptor [2]): < 0.3 µM

CN1CCC(OC2c3ccccc3CCn3cc(-c4cccs4)nc32)CC1 (stereo not drawn) [Example 47, 4-(1-methylpiperidin-4-yloxy)-2-thiophen-2-yl-9,10-dihydro-4H-3,10a-diaza-benzo[f]azulene oxalate]
Ki (human H4 receptor [1]): < 0.3 µM | IC50 (human H4 receptor [2]): < 0.3 µM

Cc1c(-c2ccc(NC(=O)OC(C)(C)C)cc2)nc2n1CCc1ccccc1C2OC1CCN(C)CC1 (stereo not drawn) [Example 130, {4-[1-methyl-4-(1-methylpiperidin-4-yloxy)-9,10-dihydro-4H-3,10a-diaza-benzo[f]azulen-2-yl]-phenyl}-carbamic acid tert-butyl ester]
Ki (human H4 receptor [1]): < 0.03 µM | IC50 (human H4 receptor [2]): < 0.03 µM

CN1CCC(OC2c3ccccc3CCn3cc(SC4CCCC4)nc32)CC1 (stereo not drawn) [Example 86, 2-cyclopentylsulfanyl-4-(1-methylpiperidin-4-yloxy)-9,10-dihydro-4H-3,10a-diaza-benzo[f]azulene oxalate]
Ki (human H4 receptor [1]): < 0.3 µM | IC50 (human H4 receptor [2]): < 0.03 µM

CN1CCC(OC2c3ccccc3CCn3cc(CCc4ccccc4)nc32)CC1 (stereo not drawn) [Example 38, 4-(1-methylpiperidin-4-yloxy)-2-phenethyl-9,10-dihydro-4H-3,10a-diaza-benzo[f]azulene oxalate]
Ki (human H4 receptor [1]): < 0.3 µM | IC50 (human H4 receptor [2]): < 0.03 µM

CN1CCC(OC2c3ccccc3CCn3cc(-c4ccc(C#N)cc4)nc32)CC1 (stereo not drawn) [Example 37, 4-[4-(1-methylpiperidin-4-yloxy)-9,10-dihydro-4H-3,10a-diaza-benzo[f]azulen-2-yl]-benzonitrile]
Ki (human H4 receptor [1]): < 0.03 µM | IC50 (human H4 receptor [2]): < 0.03 µM

CN1CCC(OC2c3ccccc3CCn3cc(C#CCNC(=O)OC(C)(C)C)nc32)CC1 (stereo not drawn) [Example 72, {3-[4-(1-methylpiperidin-4-yloxy)-9,10-dihydro-4H-3,10a-diaza-benzo[f]azulen-2-yl]-prop-2-ynyl}-carbamic acid tert-butyl ester]
Ki (human H4 receptor [1]): < 0.03 µM | IC50 (human H4 receptor [2]): < 0.03 µM

CN1CCC(OC2c3ccccc3CCn3cc(SCc4ccccc4)nc32)CC1 (stereo not drawn) [Example 67, 2-benzylsulfanyl-4-(1-methylpiperidin-4-yloxy)-9,10-dihydro-4H-3,10a-diaza-benzo[f]azulene oxalate]
Ki (human H4 receptor [1]): < 0.3 µM | IC50 (human H4 receptor [2]): < 0.3 µM

CN1CCC(OC2c3ccccc3CCn3cc(CCCc4ccccc4)nc32)CC1 (stereo not drawn) [Example 87, 4-(1-methylpiperidin-4-yloxy)-2-(3-phenylpropyl)-9,10-dihydro-4H-3,10a-diaza-benzo[f]azulene oxalate]
Ki (human H4 receptor [1]): < 0.03 µM | IC50 (human H4 receptor [2]): < 0.03 µM

CN1CCC(OC2c3ccccc3CCn3cc(-c4ccccc4Cl)nc32)CC1 (stereo not drawn) [Example 26, 2-(2-chlorophenyl)-4-(1-methylpiperidin-4-yloxy)-9,10-dihydro-4H-3,10a-diaza-benzo[f]azulene oxalate]
Ki (human H4 receptor [1]): < 0.03 µM | IC50 (human H4 receptor [2]): < 0.3 µM

Cc1c(-c2ccc(SCCN)cc2)nc2n1CCc1ccccc1C2OC1CCN(C)CC1 (stereo not drawn) [Example 161, 2-{4-[1-methyl-4-(1-methylpiperidin-4-yloxy)-9,10-dihydro-4H-3,10a-diaza-benzo[f]azulen-2-yl]-phenylsulfanyl}-ethylamine oxalate]
Ki (human H4 receptor [1]): < 0.03 µM | IC50 (human H4 receptor [2]): < 0.03 µM

Cc1c(C2=CCCCC2)nc2n1CCc1ccccc1C2OC1CCN(C)CC1 (stereo not drawn) [Example 226, 2-cyclohex-1-enyl-1-methyl-4-(1-methylpiperidin-4-yloxy)-9,10-dihydro-4H-3,10a-diaza-benzo[f]azulene]
Ki (human H4 receptor [1]): < 0.03 µM | IC50 (human H4 receptor [2]): < 0.03 µM

CN1CCC(OC2c3ccccc3CCn3cc(-c4ccc(F)cc4)nc32)CC1 (stereo not drawn) [Example 56, 2-(4-fluorophenyl)-4-(1-methylpiperidin-4-yloxy)-9,10-dihydro-4H-3,10a-diaza-benzo[f]azulene]
Ki (human H4 receptor [1]): < 0.03 µM | IC50 (human H4 receptor [2]): < 0.03 µM

C=C(C)Cc1nc2n(c1C#N)CCc1ccccc1C2OC1CCN(C)CC1 (stereo not drawn) [Example 259, 2-(2-methylallyl)-4-(1-methylpiperidin-4-yloxy)-9,10-dihydro-4H-3,10a-diaza-benzo[f]azulene-1-carbonitrile]
Ki (human H4 receptor [1]): < 0.3 µM | IC50 (human H4 receptor [2]): < 0.3 µM

CN1CCC(OC2c3ccccc3CCn3cc(-c4ccc(NC(=O)OC(C)(C)C)cc4)nc32)CC1 (stereo not drawn) [Example 49, {4-[4-(1-methylpiperidin-4-yloxy)-9,10-dihydro-4H-3,10a-diaza-benzo[f]azulen-2-yl]-phenyl}-carbamic acid tert-butyl ester]
Ki (human H4 receptor [1]): < 0.03 µM | IC50 (human H4 receptor [2]): < 0.3 µM

C=CCc1cn2c(n1)C(OC1CCN(C)CC1)c1ccccc1CC2 (stereo not drawn) [Example 30, 2-allyl-4-(1-methylpiperidin-4-yloxy)-9,10-dihydro-4H-3,10a-diaza-benzo[f]azulene oxalate]
Ki (human H4 receptor [1]): < 0.3 µM | IC50 (human H4 receptor [2]): < 0.3 µM

Cc1c(-c2ccc(SCc3ccccc3)cc2)nc2n1CCc1ccccc1C2OC1CCN(C)CC1 (stereo not drawn) [Example 164, 2-(4-benzylsulfanylphenyl)-1-methyl-4-(1-methylpiperidin-4-yloxy)-9,10-dihydro-4H-3,10a-diaza-benzo[f]azulene oxalate]
Ki (human H4 receptor [1]): < 0.03 µM | IC50 (human H4 receptor [2]): < 0.03 µM

CCc1ccc(-c2cn3c(n2)C(OC2CCN(C)CC2)c2ccccc2CC3)cc1 (stereo not drawn) [Example 21, 2-(4-ethylphenyl)-4-(1-methylpiperidin-4-yloxy)-9,10-dihydro-4H-3,10a-diaza-benzo[f]azulene]
Ki (human H4 receptor [1]): < 0.3 µM | IC50 (human H4 receptor [2]): < 0.03 µM

CN1CCC(OC2c3ccccc3CCn3cc(-c4ccc(C(=O)OC(C)(C)C)cc4)nc32)CC1 (stereo not drawn) [Example 36, 4-[4-(1-methylpiperidin-4-yloxy)-9,10-dihydro-4H-3,10a-diaza-benzo[f]azulen-2-yl]-benzoic acid tert-butyl ester]
Ki (human H4 receptor [1]): < 0.03 µM | IC50 (human H4 receptor [2]): < 0.03 µM

CN1CCC(OC2c3ccccc3CCn3cc(-c4ccc(C(F)(F)F)cc4)nc32)CC1 (stereo not drawn) [Example 25, 4-(1-methylpiperidin-4-yloxy)-2-(4-trifluoromethylphenyl)-9,10-dihydro-4H-3,10a-diaza-benzo[f]azulene]
Ki (human H4 receptor [1]): < 0.03 µM | IC50 (human H4 receptor [2]): < 0.03 µM

CN1CCC(OC2c3cccc(Br)c3CCn3cc(I)nc32)CC1 (stereo not drawn) [Example 79, 8-bromo-2-iodo-4-(1-methylpiperidin-4-yloxy)-9,10-dihydro-4H-3,10a-diaza-benzo[f]azulene]
Ki (human H4 receptor [1]): < 0.3 µM | IC50 (human H4 receptor [2]): < 1 µM

CN1CCC(OC2c3ccccc3CCn3cc(C=CC4CC4)nc32)CC1 (stereo not drawn) [Example 99, 2-(2-cyclopropylvinyl)-4-(1-methylpiperidin-4-yloxy)-9,10-dihydro-4H-3,10a-diaza-benzo[f]azulene oxalate]
Ki (human H4 receptor [1]): < 0.3 µM | IC50 (human H4 receptor [2]): < 0.3 µM

CN1CCC(OC2c3ccccc3CCn3cc(-c4ccc(C(F)F)cc4)nc32)CC1 (stereo not drawn) [Example 69, 2-(4-difluoromethylphenyl)-4-(1-methylpiperidin-4-yloxy)-9,10-dihydro-4H-3,10a-diaza-benzo[f]azulene]
Ki (human H4 receptor [1]): < 0.03 µM | IC50 (human H4 receptor [2]): < 0.3 µM

C=C(C)Cc1cn2c(n1)C(OC1CCN(C)CC1)c1ccccc1CC2 (stereo not drawn) [Example 70, 2-(2-methyl-allyl)-4-(1-methylpiperidin-4-yloxy)-9,10-dihydro-4H-3,10a-diaza-benzo[f]azulene oxalate]
Ki (human H4 receptor [1]): < 0.3 µM | IC50 (human H4 receptor [2]): < 0.3 µM

CN1CCC(OC2c3ccccc3CCn3cc(-c4ccccc4F)nc32)CC1 (stereo not drawn) [Example 27, 2-(2-fluorophenyl)-4-(1-methylpiperidin-4-yloxy)-9,10-dihydro-4H-3,10a-diaza-benzo[f]azulene]
Ki (human H4 receptor [1]): < 0.3 µM | IC50 (human H4 receptor [2]): < 0.3 µM

Cc1c(-c2ccc(SC(C)(C)CCO)cc2)nc2n1CCc1ccccc1C2OC1CCN(C)CC1 (stereo not drawn) [Example 152, 3-methyl-3-{4-[1-methyl-4-(1-methylpiperidin-4-yloxy)-9,10-dihydro-4H-3,10a-diaza-benzo[f]azulen-2-yl]-phenylsulfanyl}-butan-1-ol]
Ki (human H4 receptor [1]): < 0.03 µM | IC50 (human H4 receptor [2]): < 0.03 µM

Cc1c(-c2ccc(NC(=S)NC(C)C)cc2)nc2n1CCc1ccccc1C2OC1CCN(C)CC1 (stereo not drawn) [Example 206, 1-isopropyl-3-{4-[1-methyl-4-(1-methylpiperidin-4-yloxy)-9,10-dihydro-4H-3,10a-diazabenzo[f]azulen-2-yl]-phenyl}-thiourea]
Ki (human H4 receptor [1]): < 0.03 µM | IC50 (human H4 receptor [2]): < 0.03 µM

Cc1ccc(-c2cn3c(n2)C(OC2CCN(C)CC2)c2ccccc2CC3)c(F)c1 (stereo not drawn) [Example 82, 2-(2-fluoro-4-methylphenyl)-4-(1-methylpiperidin-4-yloxy)-9,10-dihydro-4H-3,10a-diaza-benzo[f]azulene]
Ki (human H4 receptor [1]): < 0.3 µM | IC50 (human H4 receptor [2]): < 0.03 µM

CN1CCC(OC2c3ccccc3CCn3cc(-c4ccccc4Cl)nc32)CC1 (single isomer, unassigned) [Example 54B, 2-(2-chlorophenyl)-4-(1-methylpiperidin-4-yloxy)-9,10-dihydro-4H-3,10a-diaza-benzo[f]azulene]
Ki (human H4 receptor [1]): < 0.3 µM | IC50 (human H4 receptor [2]): < 0.03 µM

CCc1c(-c2ccccc2)nc2n1CCc1ccccc1C2OC1CCN(C)CC1 (stereo not drawn) [Example 120, 1-ethyl-4-(1-methylpiperidin-4-yloxy)-2-phenyl-9,10-dihydro-4H-3,10a-diaza-benzo[f]azulene oxalate]
Ki (human H4 receptor [1]): < 0.03 µM | IC50 (human H4 receptor [2]): < 0.03 µM

CN1CCC(OC2c3ccccc3CCn3cc(C=CC(C)(C)C)nc32)CC1 (stereo not drawn) [Example 93, 2-(3,3-dimethylbut-1-enyl)-4-(1-methylpiperidin-4-yloxy)-9,10-dihydro-4H-3,10a-diaza-benzo[f]azulene]
Ki (human H4 receptor [1]): < 0.03 µM | IC50 (human H4 receptor [2]): < 0.03 µM

CN1CCC(OC2c3ccccc3CCn3cc(CCCC4CCCC4)nc32)CC1 (stereo not drawn) [Example 105, 2-(3-cyclopentylpropyl)-4-(1-methylpiperidin-4-yloxy)-9,10-dihydro-4H-3,10a-diaza-benzo[f]azulene]
Ki (human H4 receptor [1]): < 0.03 µM | IC50 (human H4 receptor [2]): < 0.03 µM

Cc1c(-c2ccc(N(C)C(=O)OC(C)(C)C)cc2)nc2n1CCc1ccccc1C2OC1CCN(C)CC1 (stereo not drawn) [Example 125, methyl-{4-[1-methyl-4-(1-methylpiperidin-4-yloxy)-9,10-dihydro-4H-3,10a-diaza-benzo[f]azulen-2-yl]-phenyl}carbamic acid tert-butyl ester]
Ki (human H4 receptor [1]): < 0.03 µM | IC50 (human H4 receptor [2]): < 0.03 µM
